EP0351784A2, “Therapeutic use of the isopropyl ester derivative of monosialoganglioside in nervous pathologies with an inflammatory component” (FIDIA S.p.A., priority 1988, dated 1990)

Legend:
Sprague-Dawley rats = assay: acetic acid-induced peritonitis test (antiexudative activity); type: in vivo, rat; settings: for % inhibition: peritoneal exudate
Procedure: The study was conducted on Sprague-Dawley rats, weighing between 200 and 300 gr. An evaluation was made of the capacity of the isopropyl ester of GM₁ ganglioside (hereafter known as AGF₄₄) and GM₁ itself, to inhibit the formation of peritoneal exudate following intraperitoneal injection (10 ml/kg) of a 0.5% acetic acid solution. To study administration by oral, subcutaneous and intraperitoneal routes, AGF₄₄ and GM₁ (solubilized in 10 ml/kg of sterile saline physiological solution) and a comparison compound indomethacin were administered by the individual routes one hour before the injection of acetic acid. To study topical administration, one hour before i.p. injection of acetic acid, AGF₄₄ and GM₁ in the form of 0.1% aqueous gels and the comparison 5% Artrosilene gel (ketoprofen lysine salt) were applied to the right paws with a light massage for 30 seconds to ensure complete absorption of the gel. The control groups received saline physiological solution (10 ml/kg) and placebo gel (0.2 ml/rat), respectively. 30 minutes after exudate inducement the animals were sacrificed, samples were taken of the peritoneal exudate and the percentage of inhibition of the same in relation to control values was calculated.

male Sprague Dawley rats = assay: carrageenan-induced edema test in the paw (antiedematous activity); type: in vivo, rat; settings: for % inhibition: paw volume increase at 3rd hour
Procedure: The study was conducted on male Sprague Dawley rats, weighing about 160 ± 10 gr. An evaluation was made of the activity of the isopropyl ester of GM₁ ganglioside (AGF₄₄) and GM₁ in inhibiting the formation of edema following injection of a sterile aqueous solution of 1% carrageenan into the plantar aponeurosis of the right hand paw (0.1 ml/rat). To study administration by oral, subcutaneous and intraparitoneal routes, AGF₄₄ and GM₁ (solubilized in 10 ml/kg of sterile saline physiological solution) were compared to indomethacin as a comparison compound. For study of the oral route, each compound was administered by oral route one hour before injection of carrageenan. For study of the subcutaneous and intraperitoneal routes, each compound was administered 30 minutes before the same. To study topical administration, AGF₄₄ and GM₁ (as 0.1% aqueous gels) were compared to 5% Artrosilene gel (ketoprefene lysine salt). Each compound was applied locally to the right paw, and administration was effected twice, one hour before and immediately after injection of carrageenan, massaging lightly for 30 seconds to ensure complete absorption. The control groups received saline physiological solution (10 ml/kg) and placebo gel (0.2-0.4 ml/rat twice) respectively. Plethysmometric evaluation of the volume of the right paw was effected immediately before sub-plantar injection of carrageenan an 3 hours after the same. The antiedematous effect of the treatment was calculated by evaluating the average increase in paw volume at the 3rd hour (compared to time 0) based on control values.

[1] = intraperitoneal, 1 mg/kg, one hour before acetic acid
[2] = oral, 1 mg/kg, one hour before i.p. 0.5% acetic acid (10 ml/kg)
[3] = oral, 2.5 mg/kg, one hour before acetic acid
[4] = subcutaneous, 1 mg/kg, one hour before acetic acid
[5] = subcutaneous, 2.5 mg/kg, one hour before acetic acid
[6] = intraperitoneal, 1 mg/kg, 30 minutes before carrageenan
[7] = intraperitoneal, 5 mg/kg, 30 minutes before carrageenan
[8] = oral, 1 mg/kg, one hour before 1% carrageenan
[9] = oral, 5 mg/kg, one hour before carrageenan
[10] = subcutaneous, 1 mg/kg, 30 minutes before carrageenan
[11] = subcutaneous, 5 mg/kg, 30 minutes before carrageenan
[12] = intraperitoneal, 2.5 mg/kg, one hour before acetic acid
[13] = topical to right paw, 0.1% gel 0.2 ml/rat, 1.4 mg/kg, one hour before acetic acid
[14] = intraperitoneal, 2 mg/kg, 30 minutes before carrageenan
[15] = oral, 2 mg/kg, one hour before carrageenan
[16] = subcutaneous, 2 mg/kg, 30 minutes before carrageenan

Compound	% inhibition (Sprague-Dawley rats; [1]) [%]	% inhibition (Sprague-Dawley rats; [2]) [%]	% inhibition (Sprague-Dawley rats; [3]) [%]	% inhibition (Sprague-Dawley rats; [4]) [%]	% inhibition (Sprague-Dawley rats; [5]) [%]	% inhibition (male Sprague Dawley rats; [6]) [%]	% inhibition (male Sprague Dawley rats; [7]) [%]	% inhibition (male Sprague Dawley rats; [8]) [%]	% inhibition (male Sprague Dawley rats; [9]) [%]	% inhibition (male Sprague Dawley rats; [10]) [%]	% inhibition (male Sprague Dawley rats; [11]) [%]	% inhibition (Sprague-Dawley rats; [12]) [%]	% inhibition (Sprague-Dawley rats; [13]) [%]	% inhibition (male Sprague Dawley rats; [14]) [%]	% inhibition (male Sprague Dawley rats; [15]) [%]	% inhibition (male Sprague Dawley rats; [16]) [%]	other results
COc1ccc2c(c1)c(CC(=O)O)c(C)n2C(=O)c1ccc(Cl)cc1 [Indomethacin, indomethacin, reference compound]	70	74	90	64	84	23	67	22	67	30	60						
GM₁ ganglioside [GM1, reference compound]	47	56	63	44	52		30		32		31	51	30	20	20	19	% inhibition (male Sprague Dawley rats; topical, 0.1% gel 0.2 ml/rat/twice, dose in mg/kg not given): 20%
isopropyl ester of GM₁ ganglioside [GM1 isopropyl ester]	55	70	72	47	61	18	57	20	60	25	50	60	43	32	32	30	Peritoneal exudate inhibition (Sprague-Dawley rats; after oral administration): 70-80%; antiexudative efficacy (Sprague-Dawley rats; at doses of less than 0.1 mg/kg (in the order of 0.1 mg/kg)): efficacious; antiexudative activity (Sprague-Dawley rats; at doses of over 10 mg/kg): the activity decreases; antiexudative activity compared with indomethacin (Sprague-Dawley rats; oral, at 1 mg/kg): comparable to that of indomethacin; % inhibition (Sprague-Dawley rats; intraperitoneal, 5 mg/kg, one hour before acetic acid): 64%; % inhibition (Sprague-Dawley rats; oral, 5 mg/kg, one hour before acetic acid): 77%; % inhibition (Sprague-Dawley rats; subcutaneous, 5 mg/kg, one hour before acetic acid): 70%; antiinflammatory activity (male Sprague Dawley rats; at doses of over 10 mg/kg): it diminishes at doses of over 10 mg/kg; Maximum efficacy (inhibition) (male Sprague Dawley rats; by oral route): 50-60%; % inhibition (male Sprague Dawley rats; topical, 0.1% gel 0.2 ml/rat/twice, 1.25 x 2 mg/kg): 32%; % inhibition (male Sprague Dawley rats; topical, 0.1% gel 0.4 ml/rat/twice, 2.5 x 2 mg/kg): 43%
